Measurements as given in patent US11866482B2, “System and method for homogenous GPCR phosphorylation and identification of beta-2 adrenergic receptor positive allosteric modulators” (Duke University, priority 2018, dated 2024).

Key:
M2Rpp [1] = biological target: T1, M2Rpp (Homo sapiens, UniProt P08172); assay: [3H]-NMS competition binding, sortase-ligated M2Rpp HDLs
T1 sequence (P08172 1-466): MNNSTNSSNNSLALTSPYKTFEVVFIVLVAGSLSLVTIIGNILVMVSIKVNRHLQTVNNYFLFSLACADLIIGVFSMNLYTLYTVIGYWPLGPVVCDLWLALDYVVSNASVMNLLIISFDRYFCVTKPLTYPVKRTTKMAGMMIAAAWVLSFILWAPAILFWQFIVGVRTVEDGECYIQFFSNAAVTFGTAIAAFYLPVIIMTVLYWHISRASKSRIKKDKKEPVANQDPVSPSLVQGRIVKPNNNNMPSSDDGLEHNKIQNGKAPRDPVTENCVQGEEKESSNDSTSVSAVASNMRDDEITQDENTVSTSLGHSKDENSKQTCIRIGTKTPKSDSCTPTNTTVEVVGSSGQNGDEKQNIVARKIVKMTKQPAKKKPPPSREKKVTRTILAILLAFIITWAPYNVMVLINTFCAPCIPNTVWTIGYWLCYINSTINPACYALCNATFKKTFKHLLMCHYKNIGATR
Experimental: (§1) Radioligand Binding: All equilibrium competition radioligand binding studies were conducted in a final volume of 200 μL containing HDL-receptor, radioligand, a titration of unlabeled competitor, and the presence or absence of the indicated transducer protein. All components were diluted in assay buffer containing 20 mM HEPES, pH 7.4, 100 mM NaCl, and 1 mg/mL bovine serum albumin (BSA). […] G protein or βarr1 were used at a final concentration of 100 nM or 1 μM, respectively, unless specified otherwise. Binding reactions proceeded at room temperature and were harvested onto glass-fiber filters (GFB) with 0.3% polyethyleneimine (PEI) using a 96-well Brandel harvester. Binding data were analyzed in GraphPad Prism using a sigmoidal dose-response curve fit, and differences in log IC50 values were analyzed by one-way ANOVA.

MORpp [2] = biological target: T2, MORpp (Homo sapiens, UniProt P35372); assay: In vitro G protein GTPase assay, MORpp HDLs (Gi); conditions: FIG. 11
T2 sequence (P35372 with tags, fused parts or gaps): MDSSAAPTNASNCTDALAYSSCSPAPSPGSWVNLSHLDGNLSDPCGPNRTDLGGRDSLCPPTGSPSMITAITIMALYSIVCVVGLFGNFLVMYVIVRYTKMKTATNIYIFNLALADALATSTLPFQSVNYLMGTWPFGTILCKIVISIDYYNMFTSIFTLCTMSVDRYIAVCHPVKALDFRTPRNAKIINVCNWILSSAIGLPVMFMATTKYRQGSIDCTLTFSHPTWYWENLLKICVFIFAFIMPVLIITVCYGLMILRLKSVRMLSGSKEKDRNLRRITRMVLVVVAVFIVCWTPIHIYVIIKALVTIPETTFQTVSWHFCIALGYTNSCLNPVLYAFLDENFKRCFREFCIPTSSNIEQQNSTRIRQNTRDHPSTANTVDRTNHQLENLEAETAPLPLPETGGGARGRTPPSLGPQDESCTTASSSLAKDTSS
Experimental: (§2) G protein GTPase Assay: The GTPase activity of Gαs or Gαi was measured in vitro using the GTPase Glo Assay (Promega) with the following modifications. Final reaction buffer consisted of 20 mM HEPES, pH 7.4, 100 mM NaCl, 10 mM MgCl2, and 1 mg/mL BSA. HDL-β2AR (4 nM), −M2R (100 nM), or MOR (100 nM) was incubated in the absence or presence of the indicated agonist (5 μM) and βarr1 (1 μM) for 15 min at room temperature.
(§3) To test this, an in vitro GTPase activity assay was performed that can quantitatively measure agonist-induced receptor activation of G protein.

MORpp [3] = biological target: T2, MORpp; assay: [3H]-Naloxone competition binding, sortase-ligated MORpp HDLs
Experimental: as §1

β1AR = β1AR (Homo sapiens, UniProt P08588); assay: β1AR-mediated cAMP production; assay type: cell-based; conditions: FIG. 21B
Chain of β1AR (P08588 whole entry): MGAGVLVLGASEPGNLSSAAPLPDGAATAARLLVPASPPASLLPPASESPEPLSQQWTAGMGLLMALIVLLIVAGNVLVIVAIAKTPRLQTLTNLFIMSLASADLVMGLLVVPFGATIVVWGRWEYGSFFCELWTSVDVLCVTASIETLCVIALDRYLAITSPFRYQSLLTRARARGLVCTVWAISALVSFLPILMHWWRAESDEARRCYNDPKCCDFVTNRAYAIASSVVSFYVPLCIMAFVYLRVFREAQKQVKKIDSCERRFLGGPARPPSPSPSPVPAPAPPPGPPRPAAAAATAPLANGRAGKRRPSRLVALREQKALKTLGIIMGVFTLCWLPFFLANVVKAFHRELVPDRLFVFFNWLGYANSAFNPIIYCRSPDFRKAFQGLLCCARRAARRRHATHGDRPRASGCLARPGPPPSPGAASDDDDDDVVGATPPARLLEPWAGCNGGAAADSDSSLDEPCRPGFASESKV

β2AR [4] = biological target: β2AR (Homo sapiens, UniProt P07550, N187E); assay: ISO competition binding against 125I-CYP in presence of PAM, β2AR reconstituted in HDL particles; conditions: ISO vs 125I-CYP
β2AR [5] = biological target: T3, β2AR (Homo sapiens, UniProt P07550); assay: ISO-induced G protein-mediated cAMP production, endogenously expressed β2AR; assay type: cell-based; conditions: FIGS. 15A and 15B
β2AR [6] = biological target: T3, β2AR; assay: 3H-FEN agonist binding to β2AR in cell membranes; set-up: host or cells: cell membranes
Experimental: Accordingly, these 50 potential hits from the selection were tested for their ability to increase binding of a radiolabeled agonist, ^3H-fenoterol (^3H-FEN) to the β2AR in membrane preparations, both in the absence and presence of transducers (FIGS. 14E and 14F).
Another feature of allosteric molecules observed in both binding experiments is the “ceiling” effect.

M2Rpp [7] = biological target: T1, M2Rpp; assay: In vitro G protein GTPase assay, M2Rpp HDLs (Gi); conditions: FIG. 11
Experimental: as §2, §3

C[N+](C)(C)CCOC(N)=O [carbachol]
increase in agonist affinity by βarr1 (M2Rpp [1]): 57 fold | increase in agonist affinity induced by G protein (M2Rpp [1]; Gi heterotrimer): > 100 fold

C[C@@H](NC(=O)[C@@H](N)Cc1ccc(O)cc1)C(=O)NCC(=O)N(C)[C@@H](Cc1ccccc1)C(=O)NCCO [DAMGO]
G protein activation (GTP hydrolysis) (MORpp [2]): increases G protein activation | increase in agonist affinity by βarr1 (MORpp [3]): 2 fold | increase in agonist affinity induced by G protein (MORpp [3]; Gi heterotrimer): > 100 fold

COc1ccc(Sc2ccc(S(=O)(=O)N(C)C(C)C)cc2C(=O)N[C@@H](CC(N)=O)Cc2ccc(C(C)(C)C)cc2)cc1 [Cmpd-6, (R)—N-(4-Amino-1-(4-(tert-butyl)phenyl)-4-oxobutan-2-yl)-5-(N-isopropyl-N-methylsulfamoyl)-2-((4-methoxyphenyl)thio)benzamide]
changes in ISO dose response pattern of cAMP production (β1AR): Marginal changes

COc1ccc(Sc2ccc(S(=O)(=O)Nc3cccc(F)c3)cc2C(=O)N[C@@H](CC(N)=O)Cc2ccc(C(C)(C)C)cc2)cc1 [Cmpd-43, (R)—N-(4-Amino-1-(4-(tert-butyl)phenyl)-4-oxobutan-2-yl)-5-(N-(3-fluorophenyl)sulfamoyl)-2-((4-methoxyphenyl)thio)benzamide]
potentiation of the IC50 value of ISO (β2AR [4]): ~30 fold | effect on ISO-induced cAMP production (β2AR [5]): increased the maximal response induced by ISO as well as potentiated the EC50 value | increase in 3H-FEN binding to the β2AR (β2AR [6]): dose-dependently increase the binding

C[N+](C)(C)CC#CCOC1=NOCC1 [iperoxo]
effects of G protein and βarr on agonist affinity (M2Rpp [1]; FIGS. 9E and 9F): comparable effects of G protein and βarr | G protein activation (GTP hydrolysis) (M2Rpp [7]): increases G protein activation
